The record followed here is US20050282889A1, “Intracorporeal medicaments for photodynamic treatment of disease” (priority 1996, published 2005).

Data set [1] is described as follows: Absorbance properties of halogenated xanthenes (λmax, α). The format is physicochemical. The source says: Certain general properties of this class of agents are discussed in further detail in U.S. Ser. No. 09/130,041, filed on Aug. 6, 1998, U.S. Ser. No. 09/184,388, filed on Nov. 2, 1998, and U.S. Ser. No. 09/216,787, filed on Dec. 21, 1998, which are herein incorporated by reference in their entirety.

Data set [2] in a line: Photochemical quantum yields (triplet, singlet oxygen). The format is physicochemical.
A short description of data set [3]: Partition coefficient Kp, n-octanol / phosphate buffered saline. To be noted: ratio of equilibrium concentrations, n-octanol vs PBS pH=7.4. Type of data set: physicochemical.
Experimental: Kp is determined by measuring the ratio of equilibrium concentrations of an agent in a lipophilic phase (n-octanol) contacted with an aqueous phase (phosphate buffered saline, PBS, pH=7.4).
Data set [4] is described as follows: Retention of agent after intratumoral or peritumoral injection. To be noted: intratumoral injection (ICG: within 24 hours). How it is done:
Initially, tumor cell suspensions (e.g. melanoma, breast tumor, liver tumor, renal carcinoma, gall bladder tumor or prostate tumor) were injected subcutaneously into the flanks of nude mice resulting in formation of primary tumors, within a few weeks, at the injection site having a volume of approximately 0.1 cm^3 to 0.5 cm^3.

The next data set deals with Renal Adenocarcinoma. The data set is described as follows: Intratumoral injection plus light, murine tumor model. Conditions: i.t. ICG medicament, tumor 3 × 4 × 5 mm; for No. Tumors Cured: 4 treated. Type of data set: in vivo.

As for Dibromofluorescein, in data set [1], the α came out at 14000 L/cm/mol, the “λmax (nm) EtOH” value was 510 nm and the “λmax (nm) H2O” value is 504 nm. Further, in data set [2], the “φ (singlet oxygen) EtOH” value was 0.42 and the “φ (singlet oxygen) H2O” value amounted to 0.32.
As to `O.O=C([O-])c1ccccc1-c1c2cc(I)c(=O)c(I)c-2oc2c(I)c([O-])c(I)cc12.[Na+].[Na+]` [Erythrosin B], in data set [1], the α worked out at 91000 L/cm/mol, the “λmax (nm) EtOH” value came to 532 nm, the “λmax (nm) H2O” value was determined as 528 nm and the “λmax (nm) MeOH” value is 529 nm. Further, the “Kp (partition coefficient)” value in data set [3] is given as 1.9. In addition, in data set [2], the “φ (singlet oxygen) EtOH” value amounted to 0.63, the “φ (singlet oxygen) H2O” value turned out to be 0.69, the “φ (singlet oxygen) MeOH” value was determined as 0.62 and the “φ (triplet) MeOH” value stood at 0.62.
Consider `O=C([O-])c1ccccc1-c1c2cc(Br)c(=O)c(Br)c-2oc2c(Br)c([O-])c(Br)cc12.[Na+].[Na+]` [Eosin Y], for which, in data set [1], the α worked out at 91000 L/cm/mol, the “λmax (nm) EtOH” value was found to be 523 nm, the “λmax (nm) H2O” value is 517 nm and the “λmax (nm) MeOH” value is 527 nm. In data set [2], the “φ (singlet oxygen) EtOH” value is 0.57, the “φ (singlet oxygen) H2O” value was found to be 0.32, the “φ (singlet oxygen) MeOH” value amounted to 0.39 and the “φ (triplet) MeOH” value was 0.28.
Take `CC1(C)C(/C=C/C=C/C=C/C=C2\N(CCCCS(=O)(=O)O)c3ccc4ccccc4c3C2(C)C)=[N+](CCCCS(=O)(=O)[O-])c2ccc3ccccc3c21` [Indocyanine Green, reference compound]: the “Tissue localization after i.t. administration” value in data set [4] was “substantively migrated out of the tumor”. Besides, the “Cure Rate” value with Renal Adenocarcinoma (No Light control, 0 J/cm^2) was found to be 0%; with Renal Adenocarcinoma (50 J/cm^2 805 nm) it was 0%. Besides, the “No. Tumors Cured” value in the data set with Renal Adenocarcinoma (No Light control, 0 J/cm^2) is 0; in the data set on Renal Adenocarcinoma (50 J/cm^2 805 nm), 0.
For the molecule `CCOC(=O)c1ccccc1-c1c2cc(Br)c(=O)c(Br)c-2oc2c(Br)c([O-])c(Br)cc12.[K+]` [Ethyl Eosin], in data set [1], the α is 11000 L/cm/mol and the “λmax (nm) EtOH” value was 532 nm.
On to `O=C1OC2(c3ccccc31)c1ccc(O)c(Cl)c1Oc1c2ccc(O)c1Cl` [4′,5′-Dichlorofluorescein], for which, in data set [1], the “λmax (nm) EtOH” value turned out to be 511 nm and the “λmax (nm) H2O” value worked out at 502 nm. In data set [2], the “φ (singlet oxygen) EtOH” value is recorded as 0.07 and the “φ (singlet oxygen) H2O” value is listed as 0.04.
For `O=C([O-])c1c(Cl)c(Cl)c(Cl)c(Cl)c1-c1c2cc(Br)c(=O)c(Br)c-2oc2c(Br)c([O-])c(Br)cc12.[Na+].[Na+]` [Phloxine B], in data set [1], the α was 100000 L/cm/mol, the “λmax (nm) EtOH” value was found to be 548 nm, the “λmax (nm) H2O” value is 541 nm and the “λmax (nm) MeOH” value is on record as 547 nm. Besides, the “Kp (partition coefficient)” value in data set [3] was 1.1. Also, in data set [2], the “φ (singlet oxygen) EtOH” value was 0.63 and the “φ (singlet oxygen) H2O” value was 0.40.
Regarding `O=C1OC2(c3ccccc31)c1cc(Cl)c(O)c(Cl)c1Oc1c2cc(Cl)c(O)c1Cl` [2′,4′,5′,7′-Tetrachlorofluorescein], in data set [1], the “λmax (nm) EtOH” value was determined as 520 nm and the “λmax (nm) H2O” value worked out at 510 nm. For the same molecule, in data set [2], the “φ (singlet oxygen) EtOH” value is reported as 0.05 and the “φ (singlet oxygen) H2O” value came out at 0.05.
Turning to `O=C1OC2(c3ccccc31)c1ccc(O)c(Br)c1Oc1c2ccc(O)c1Br` [Solvent Red 72], in data set [1], the α was determined as 14000 L/cm/mol and the “λmax (nm) MeOH” value was determined as 450 nm.
On to `O=C1OC2(c3ccc(O)cc3Oc3cc(O)ccc32)c2ccccc21` [Fluorescein], for which, in data set [1], the α was 64000 L/cm/mol, the “λmax (nm) EtOH” value was determined as 499 nm, the “λmax (nm) H2O” value stood at 490 nm and the “λmax (nm) MeOH” value is given as 492 nm. Moreover, in data set [2], the “φ (singlet oxygen) EtOH” value was determined as 0.03, the “φ (singlet oxygen) H2O” value is listed as 0.03, the “φ (singlet oxygen) MeOH” value stood at 0.09 and the “φ (triplet) MeOH” value stood at 0.03.
On to `CCN(CC)CC.CCOC(=O)c1c(Cl)c(Cl)c(Cl)c(Cl)c1-c1c2cc(I)c(=O)c(I)c-2oc2c(I)c(O)c(I)cc12` [Rose Bengal Derivative I], for which the “λmax (nm) EtOH” value in data set [1] is 563 nm. In addition, the “φ (singlet oxygen) MeOH” value in data set [2] is recorded as 0.74.
Turning to `O=C(O)c1ccccc1-c1c2cc([N+](=O)[O-])c(=O)c(Br)c-2oc2c(Br)c(O)c([N+](=O)[O-])cc12` [Eosin B], in data set [1], the α is 39000 L/cm/mol and the “λmax (nm) H2O” value turned out to be 522 nm.
Turning to `CCN(CC)CC.CCN(CC)CC.O=C(O)c1c(Cl)c(Cl)c(Cl)c(Cl)c1-c1c2cc(I)c(=O)c(I)c-2oc2c(I)c(O)c(I)cc12` [Rose Bengal Derivative II], the “φ (singlet oxygen) MeOH” value in data set [2] was 0.72.
For `O=C1OC2(c3cc(Cl)c(O)cc3Oc3cc(O)c(Cl)cc32)c2ccccc21` [2′,7′-Dichlorofluorescein], in data set [1], the “λmax (nm) EtOH” value was 511 nm and the “λmax (nm) H2O” value was determined as 502 nm. In addition, in data set [2], the “φ (singlet oxygen) EtOH” value was 0.07 and the “φ (singlet oxygen) H2O” value came out at 0.04.
`O=C1OC2(c3ccc(O)cc3Oc3cc(O)ccc32)c2c(Cl)c(Cl)c(Cl)c(Cl)c21` [4,5,6,7-Tetrachlorofluorescein]: in data set [1], the α was 29000 L/cm/mol and the “λmax (nm) H2O” value was found to be 515 nm.
Turning to Diiodofluorescein, in data set [1], the α came out at 58000 L/cm/mol, the “λmax (nm) EtOH” value turned out to be 513 nm and the “λmax (nm) H2O” value is listed as 506 nm. Further, in data set [2], the “φ (singlet oxygen) EtOH” value was determined as 0.48 and the “φ (singlet oxygen) H2O” value is on record as 0.33.
